Where “and” joins values, the source holds several entries; their conditions need not be identical. Equal values may be shown once.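 Cells were grown in 96-well plates and exposed to each compound for 48 hours at five concentrations; endpoints were interpolated linearly between bracketing concentrations, or set to the highest concentration if not reached. GI50: concentration for 50% inhibition of growth. Definition used: TGI = concentration required for complete inhibition of growth.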
What was measured:
Assay in all cases: growth of human tumour cells (NCI), 48 h
[1] = test system: SK-MEL-28 melanoma
[2] = test system: PC-3 prostate
[3] = test system: SR leukemia
[4] = test system: SF-539 CNS
[5] = test system: CAKI-1 renal
[6] = test system: T-47D breast
[7] = test system: SK-MEL-2 melanoma
[8] = test system: LOX IMVI melanoma
[9] = test system: RPMI-8226 leukemia
[10] = test system: BT-549 breast
[11] = test system: MCF7 breast
[12] = test system: DU-145 prostate
[13] = test system: OVCAR-4 ovarian

Structure (SMILES)	TGI [1]	TGI [2]	TGI [3]	TGI [4]	TGI [5]	TGI [6]	TGI [7]	TGI [8]	TGI [9]	TGI [10]	TGI [11]	TGI [12]	TGI [13]	GI50 [1]	GI50 [13]	GI50 [4]	GI50 [7]	GI50 [8]	GI50 [9]	GI50 [11]
COC(=O)C1c2c(c3ccccc3n2C(=O)OC)CCN2CCC1C(S(=O)(=O)c1ccccc1)C2=O (stereo unspecified)	> 100 µM	> 100 µM	> 100 µM	> 100 µM	> 100 µM	> 100 µM	> 100 µM	> 100 µM	> 100 µM	> 100 µM	> 100 µM	> 100 µM								
C=C(C)C1CC/C(C)=C/CC[C@]2(C)O[C@H]2CC/C(COC(C)=O)=C\[C@@H]1O (stereo partly specified)	> 50 µM	> 50 µM	> 50 µM	> 50 µM	> 50 µM	> 50 µM	> 50 µM		> 50 µM	> 50 µM	> 50 µM	> 50 µM	> 50 µM							
COP(=O)(Cc1ccccc1)Cc1ccccc1	> 100 µM	> 100 µM	> 100 µM	> 100 µM	> 100 µM	> 100 µM	> 100 µM	> 100 µM	> 100 µM	> 100 µM	> 100 µM	> 100 µM	> 100 µM							
Cc1cc(-c2nc3ccccc3s2)ccc1N	> 100 µM	> 88.8 µM	> 89.8 µM	> 91.6 µM	> 82.4 µM	> 85.9 µM	> 84 µM	> 78.5 µM	> 100 µM	> 84.3 µM	> 100 µM	> 100 µM	> 84.1 µM							
COc1cc(C2SC(N)=Nc3c2c(C)nn3C(=O)c2ccccc2O)ccc1O (stereo unspecified)	> 10 µM	> 10 µM	> 2.73 µM	> 2.31 µM	> 10 µM	> 10 µM	> 10 µM	> 10 µM	> 7.78 µM	> 10 µM	> 10 µM	> 10 µM	> 6.37 µM							
Cc1ccc2c(c1)C(=O)N1CCC[C@H]1C=N2	52 µM	> 74.4 µM	> 92.1 µM	37.3 µM	> 71.7 µM	> 100 µM	34.9 µM	> 100 µM	> 53.3 µM	84.7 µM	> 76.5 µM	> 100 µM	53.8 µM							
COC1C(O)C(C)OC(OC2C(Oc3cccc4c(O)c5c(=O)oc6ccc(C)c7c(=O)oc(c34)c5c67)OC(C)C(O)C2O)C1O (stereo unspecified)	6.85 µM and 4.93 µM	17.8 µM	6.47 µM	5.52 µM and 5.55 µM		7.66 µM	1.93 µM and 2.56 µM	7.55 µM and 10.5 µM	15.9 µM and 6.88 µM	7.83 µM	21.6 µM and 6.89 µM	53.6 µM	35.1 µM and 18.3 µM	1.87 µM	11.5 µM	1.19 µM	0.695 µM	0.688 µM	1.25 µM	1.61 µM
CCN(CC)CCCn1c(=O)c2ccccc2n2c3c(=O)n(C)c(=O)n(C)c3nc12	30.2 µM	23 µM	3.37 µM	22 µM	15.1 µM	49.8 µM	35 µM	15.4 µM	49.7 µM	17.6 µM	> 100 µM	10.6 µM	22.6 µM							
Cc1oc(N)c(S(=O)(=O)c2ccc(Cl)cc2)c1C	> 100 µM	78 µM	> 100 µM	64.2 µM		> 100 µM	> 100 µM		> 100 µM	60.5 µM	> 100 µM	> 100 µM	> 100 µM							
COc1cc(C(=O)O[C@@H]2[C@@H](OC(=O)c3cc(OC)c(OC)c(OC)c3)[C@@H](OC)O[C@@H]3CO[C@@H](c4ccccc4)O[C@@H]23)cc(OC)c1OC	> 100 µM	> 100 µM	> 100 µM	> 100 µM	> 100 µM	> 100 µM	> 100 µM	> 100 µM	> 100 µM	> 100 µM	> 100 µM	> 100 µM	> 100 µM							
O=C1CC(=O)NC(=NN2C(=O)/C(=C/c3ccccc3)N=C2c2ccccc2)N1	> 100 µM	> 100 µM	> 100 µM	> 100 µM	> 100 µM	> 100 µM	> 100 µM		> 100 µM	77.1 µM	> 100 µM	> 100 µM	> 100 µM							
O=C1N2CCc3c([nH]c4ccccc34)C23CC2CCCCC12S3 (stereo unspecified)	> 100 µM	> 100 µM	> 100 µM	> 100 µM	> 100 µM	> 100 µM		> 100 µM	> 100 µM	> 100 µM	> 100 µM	> 100 µM	> 100 µM							
Brc1c(C#CCC(c2ccccc2)(c2ccccc2)c2ccccc2)ccc(C#CCC(c2ccccc2)(c2ccccc2)c2ccccc2)c1Br	> 100 µM	> 100 µM	> 100 µM	> 100 µM	> 100 µM	> 100 µM	> 100 µM		> 100 µM	> 100 µM	> 100 µM	> 100 µM	> 100 µM							
CC1(C)CC23CC(C)(C)c4cccc(c42)OCc2ccc4ccc5ccc(nc5c4n2)COc2cccc1c23	> 50 µM	> 50 µM	> 50 µM	> 50 µM	> 50 µM	> 50 µM	> 50 µM	> 50 µM	> 50 µM	> 50 µM	> 50 µM	> 50 µM	> 50 µM							
CC(C)OP(=O)(OC(C)C)/C(C#N)=C/c1ccco1	> 100 µM	> 100 µM	> 100 µM	> 100 µM	> 100 µM	> 100 µM	> 100 µM	> 100 µM	> 100 µM	> 100 µM	> 100 µM	> 100 µM	> 100 µM							
CCOP(=O)(C/C=C/Cn1nc(Br)c(=O)[nH]c1=O)OCC	> 100 µM	> 100 µM	> 100 µM	> 100 µM	> 100 µM	> 100 µM	> 100 µM	> 100 µM	> 100 µM	> 100 µM	> 100 µM	> 100 µM	> 100 µM							
c1ccc(P(CCP(c2ccccn2)c2ccccn2)c2ccccc2)cc1	> 100 µM	72.6 µM	> 100 µM	> 100 µM	> 100 µM	> 100 µM	66.3 µM	> 100 µM	40.6 µM	> 100 µM	> 100 µM	> 100 µM	> 100 µM							

Structure (SMILES)	TGI [1]	TGI [2]	TGI [3]	TGI [4]	TGI [5]	TGI [6]	TGI [7]	TGI [8]	TGI [9]	TGI [10]	TGI [11]	TGI [12]	TGI [13]	GI50 [1]	GI50 [13]	GI50 [4]	GI50 [7]	GI50 [8]	GI50 [9]	GI50 [11]
CCN(CC)CCNC(=O)c1ccc(I)cc1	> 100 µM	> 100 µM	> 100 µM	> 100 µM	> 100 µM	> 100 µM	> 100 µM	> 100 µM	> 100 µM	> 100 µM	> 100 µM	> 100 µM	> 100 µM							
C/C(=N\Nc1nc2ccccc2n1C)c1cnccn1		> 100 µM	> 100 µM	> 100 µM	> 100 µM	> 100 µM	> 100 µM	> 20 µM		> 100 µM	> 100 µM	> 100 µM	> 100 µM							
CC(=O)Oc1cc2c(c3ncccc13)OC(C)(C)C2	> 100 µM	> 100 µM	6 µM	26.9 µM	21.3 µM	81.2 µM	44.6 µM		> 100 µM	> 100 µM	61.8 µM	28.7 µM	25.5 µM							
CC(C)(C)OC(=O)N(O)CCCn1cnc2c(N)ncnc21	> 100 µM	> 100 µM	> 100 µM	> 100 µM		> 100 µM	> 100 µM	> 100 µM	> 100 µM	> 100 µM	> 100 µM	> 100 µM	> 100 µM							
O=C(O)Cc1ccc(Oc2nc3ccccc3nc2C(=O)O)cc1	> 100 µM	> 100 µM	> 100 µM	> 100 µM	> 100 µM	> 100 µM	> 100 µM	> 100 µM	> 100 µM	> 100 µM	> 100 µM	> 100 µM	> 100 µM							
CCOc1ccc(NC(=O)/C(=N\NC(C)(C)C)C2C(=O)Nc3ccccc3S2=O)cc1 (stereo unspecified)	> 100 µM	> 100 µM	> 100 µM	> 100 µM		> 100 µM	> 100 µM		> 100 µM	> 100 µM	> 100 µM	> 100 µM	> 100 µM							
CCOC(=O)c1sc(N/N=C2\NC(=O)/C(=C/c3ccc([N+](=O)[O-])cc3)S2)nc1C	> 100 µM	91.4 µM	29.4 µM	40.7 µM	60.5 µM	45.4 µM	81.3 µM	46.1 µM		74.5 µM	72.5 µM	47.4 µM	> 100 µM							
CC=CCOc1cc(NC(=S)OC(C)C)ccc1Cl (mixture of isomers)	33.7 µM	34.3 µM	44.6 µM	36.1 µM	22.8 µM	35.7 µM	28.6 µM	35.8 µM	> 100 µM	38.6 µM	38.2 µM	76.9 µM	32.4 µM							
Cc1c2c(n(CCc3ccccc3)c1C)N(C)N=C(C#N)S2(=O)=O	> 100 µM	> 100 µM	> 100 µM	> 100 µM	> 100 µM	> 100 µM	> 100 µM		> 100 µM	> 100 µM	> 100 µM	> 100 µM	> 100 µM							
Cn1c(-c2cccs2)cc(-c2cccs2)c1-c1ccco1	> 100 µM	> 100 µM	> 100 µM	> 100 µM	> 38.1 µM	12 µM	> 100 µM	62.9 µM	> 100 µM	> 100 µM	5.41 µM	> 100 µM	5.07 µM							
COc1ccc2c(c1)/C(=C\c1c(C)nc3sc(C)cn13)C(=O)N2	> 100 µM	> 100 µM	> 75.6 µM	9.58 µM	> 100 µM	> 100 µM	> 28.3 µM	61.2 µM	> 64.8 µM	45.8 µM	> 100 µM	> 46.1 µM	> 100 µM							
OC[C@]1(n2nc3ccccc3n2)OC[C@@H]1c1ccccc1	> 100 µM	> 100 µM	> 100 µM	69.2 µM	> 100 µM	> 100 µM	> 100 µM	> 100 µM	97.4 µM	99.5 µM	> 100 µM	> 100 µM	70.7 µM							
O=C1NC(N2CCCCC2)=N/C1=C\c1cccs1	> 100 µM	> 100 µM	> 100 µM	> 100 µM	> 100 µM	> 100 µM	> 100 µM	> 100 µM	> 100 µM	> 100 µM	> 100 µM	> 100 µM	> 100 µM							
Cc1nc2c(nc1C)-c1c(c3c(n1C)C(=O)CCC3)C(=O)C2=O	1.88 µM	3.14 µM	0.769 µM	2.51 µM	0.286 µM	0.0932 µM	1.29 µM	0.397 µM	0.636 µM	0.289 µM	0.358 µM	2.44 µM	0.279 µM							
Oc1ccccc1C=Nc1ccc(-c2nc3ccccc3[nH]2)cc1	> 100 µM	> 100 µM	> 100 µM	> 100 µM	> 100 µM	66.5 µM	> 100 µM	> 100 µM	> 100 µM	54.4 µM	> 100 µM	> 100 µM	> 100 µM							
N#CC(=C1CCCCC1)c1nc2ccccc2o1	> 100 µM	> 100 µM	> 100 µM	64.4 µM	> 100 µM	> 100 µM	> 100 µM		71.3 µM	89.1 µM	> 100 µM	> 100 µM	> 100 µM							
O=C(Nc1c(C(F)(F)F)cc(-c2ccccc2)[nH]c1=O)N1CCOCC1	> 100 µM	> 100 µM	> 100 µM		> 100 µM	> 100 µM	> 100 µM	> 100 µM	> 100 µM	> 100 µM	> 100 µM	> 100 µM	> 100 µM							

Source: PubChem BioAssay (NCI)
